Laboratory results as given in patent US20220273676A1, “CHOLECALCIFEROL FOR USE IN THE TREATMENT OF CELIAC DISEASE” (ABIOGEN PHARMA S.P.A., priority 2019, published 2022).

How the values were obtained:
[1] = tested on: NOD mice; assay: Histomorphometric measurement of villus length in small intestine of NOD mice; type: in vivo, mouse; details: for Villus length: celiac NOD mice
Source text: (§1) For the study, the NOD (Non Obese Diabetic) mouse was chosen as an experimental model which, when fed with a standard diet containing gluten, is able to spontaneously develop enteropathy and autoimmune disorders, with alterations of the small intestine similar to those observed. in human celiac disease.
(§2) 103 female NOD mice aged four weeks were then placed in two different enclosure rooms (one for mice intended to follow a standard diet and one for mice intended for a gluten-free diet) and allowed to acclimate for a period of at least seven days.
(§3) They were then randomly assigned to seven different experimental groups. The development of enteropathy was achieved by feeding NOD mice with a standard diet containing gluten and administering gliadin orally with a dosage of 10 μg/kg for ten consecutive days.
(§4) The seven experimental groups are represented in the following table 1.
(§5) At the end of the treatment period the mice were sacrificed. A macroscopic examination was performed and the small intestine was removed from each mouse to be subjected to microscopic examinations.
(§6) In particular, histopathological and histomorphometric examinations were carried out on sections of intestine with a thickness of 5-7 μm placed in paraffin and stained with hematoxylin-eosin.
(§7) Fifteen histomorphometric measurements of the height of the villi were then carried out from each of the five small intestine sections evaluated for each mouse. The results of the microscopic histopathological evaluation are summarized in the following table 2, which contains the four degrees of lesion previously described and the number of animals of each group presenting the various types of lesions.

[2] = tested on: NOD mice; assay: Histopathological lesion scoring (Marsh) of small intestine in NOD mouse model of celiac disease; type: in vivo; details: for Lesion type 0, number of animals / Lesion type 1, number of animals / Lesion type 2, number of animals / Lesion type 3, number of animals: celiac NOD mice
Source text: as §1, §2, §3, §4, §5, §6
The scoring system described in Marsh et al, Gut 1990 January; 31 (1): 111-4 was used, to allow comparison between groups with different degrees of inflammatory infiltration and type of lesions observed under the microscope, which provides for the following classification: • lesion type 0: normal intestinal mucosa; • lesion type 1 (infiltrative): normal morphology and architecture of the villi, higher number of intraepithelial lymphocytes; • lesion type 2 (hyperplastic): normal morphology and architecture of the villi, higher number of intraepithelial lymphocytes, hyperplasia of the glandular elements; • lesion type 3 ([…]): different degrees of atrophy of the villi with hypertrophy of the glandular crypts, superficial enterocytes with reduced height, higher number of intraepithelial lymphocytes.
as §7

[3] = tested on: NOD mice; assay: Atrophy of the intestinal mucosa, Corazza-Villanacci classification, NOD mice; type: in vivo, mouse
Procedure: (§8) Small intestine samples were taken from mice belonging to experimental groups 2 (pathology control) and 7 (cholecalciferol 130 μg/kg) of the experiment described in Example 1 and were processed to evaluate by immunohistochemistry the expression of three proteins: the receptor for vitamin D (VDR), the T-cell marker (CD3) which indicates lymphocyte infiltration and the protein of Zonula Occludens 1 or Zonulin-1 (Z0-1) which is usually released in serum and tissue following destruction of the intestinal epithelial barrier, in particular of the intercellular tight junctions (TJs).
The atrophy of the intestinal mucosa was evaluated according to the Corazza-Villanacci classification.

[4] = tested on: receptor for vitamin D (VDR); assay: Immunohistochemistry of VDR in mucosa of small intestine of NOD mice; type: in vivo, mouse; details: 130 μg/kg vs pathology control, IHC
Procedure: as §8
(§9) The samples were washed in xylene, hydrated and washed in water with solutions of ethanol and water to scale. The recovery of the antigen was carried out in sodium citrate buffer using the standard “pressure cooker” protocol. Once the antigen recovery was completed, the samples were placed at room temperature for 10 ‘and washed twice for 2’ in PBS tween (phosphate buffer saline with tween). Non-specific sites were blocked with 200 μL of T20 starting block.
(§10) They were then dispensed on each slide, either 200 μL of solution comprising the primary antibody of interest, or 200 μL of the respective negative control. The slides were then left to incubate overnight in a humid chamber with PBS at 4° C.
(§11) After incubation, repeated washes were carried out in wash buffer at room temperature, after which the endogenous peroxidase was blocked with a 0.3% hydrogen peroxide buffer.
(§12) Subsequently, repeated washes were carried out again in wash buffer at room temperature and the secondary antibody was added, which was left to incubate for 1 hour at room temperature.
(§13) Repeated washings were then carried out again in wash buffer at room temperature. Subsequently, the DAB solution (3′,3′-Diaminobenzidine) was added, which was then blocked by washing at room temperature.
(§14) Finally, counterstaining with Meyer's hematoxylin was carried out and the reaction was stopped by washing in water.
(§15) The slides were then mounted with two drops of aqueous mounting medium and allowed to dry.
(§16) Antibody labelling in villi, crypts and goblet cells was evaluated.

[5] = tested on: T-cell marker (CD3); assay: Immunohistochemistry of CD3 in mucosa of small intestine of NOD mice; type: in vivo, mouse; details: IHC
Procedure: as §8, §9, §10, §11, §12, §13, §14, §15, §16

[6] = cited from earlier work
[7] = tested on: Zonula Occludens 1 or Zonulin-1 (Z0-1); assay: Immunohistochemistry of ZO-1 in mucosa of small intestine of NOD mice; type: in vivo, mouse; details: 130 μg/kg vs vehicle group, IHC
Procedure: as §8, §9
They were then dispensed on each slide, either 200 μL of solution comprising the primary antibody of interest, or 200 μL of the respective negative control. The slides were then left to incubate overnight in a humid chamber with PBS at 4° C. […]
as §16

[8] = tested on: tight intercellular junctions (TJs); details: preliminary studies in vivo and in vitro, Dong et al. 2018; cited from earlier work
[9] = 5 μg/kg/day orally once a day for 12 weeks, n = 15
[10] = 10 μg/kg/day orally once a day for 12 weeks, n = 15
[11] = 20 μg/kg/day orally once a day for 12 weeks, n = 16
[12] = 50 μg/kg/day orally once a day for 12 weeks, n = 16
[13] = 130 μg/kg/day orally once a day for 12 weeks, n = 15

C=C1CC[C@H](O)C/C1=C/C=C1\CCC[C@]2(C)[C@@H]([C@H](C)CCCC(C)C)CC[C@@H]12 [Cholecalciferol]
Villus length [1, 9]: 65.7 ×10 μm | Villus length [1, 10]: 71.2 ×10 μm | Villus length [1, 11]: 76.1 ×10 μm | Villus length [1, 12]: 75.0 ×10 μm | Villus length [1, 13]: 78.8 ×10 μm | Relation between increase in the length of the villi and dose administered ([1]; 5-130 μg/kg): dose-dependent relationship | Villus length compared to untreated celiac controls ([1]; all treated groups): longer than those of the untreated celiac controls | Lesion type 0, number of animals [2, 9]: 0 | Lesion type 1, number of animals [2, 9]: 2 | Lesion type 2, number of animals [2, 9]: 13 | Lesion type 3, number of animals [2, 9]: 0 | Lesion type 0, number of animals [2, 10]: 0 | Lesion type 1, number of animals [2, 10]: 9 | Lesion type 2, number of animals [2, 10]: 4 | Lesion type 3, number of animals [2, 10]: 2 | Lesion type 0, number of animals [2, 11]: 0 | Lesion type 1, number of animals [2, 11]: 7 | Lesion type 2, number of animals [2, 11]: 4 | Lesion type 3, number of animals [2, 11]: 5 | Lesion type 0, number of animals [2, 12]: 3 | Lesion type 1, number of animals [2, 12]: 3 | Lesion type 2, number of animals [2, 12]: 9 | Lesion type 3, number of animals [2, 12]: 1 | Lesion type 0, number of animals [2, 13]: 3 | Lesion type 1, number of animals [2, 13]: 3 | Lesion type 2, number of animals [2, 13]: 6 | Lesion type 3, number of animals [2, 13]: 3 | General depiction of the lesions compared to the untreated celiac mice ([2]; all tested doses (5-130 μg/kg)): overall improvement | General depiction of the lesions compared to the untreated celiac mice ([2]; highest doses, repeated administrations of 50 and 130 μg/kg): significantly improved | Atrophy of the villi ([3]; 130 μg/kg vs pathology control, ZO-1 slides): less marked | Atrophy in the villi compared to vehicle treated control ([3]; 130 μg/kg, VDR slides): reduction in atrophy | VDR marking in crypts [4]: the same phenomenon was observed in the crypts | VDR marking in villi [4]: greater expression of VDR | VDR, intensity of marking of goblet cells [4]: greater intensity of marking | VDR, number of marked goblet cells [4]: smaller number of marked cells | CD3 expression ([5]; 130 μg/kg vs pathology control): less expressed | CD3 intensity of marking in goblet cells ([5]; 130 μg/kg vs pathology control): reduction in the intensity of the marking | CD3 signal in goblet cells compared to the control ([5]; 130 μg/kg vs pathology control): reduction in the signal | CD3 labelling of villi and crypts ([5]; 130 μg/kg): unlabeled | blood half-life (T1/2) ([6]; estimated): 19 to 25 h | functional half-life ([6]; related to slow release by adipose tissue): several weeks | ZO-1 marking of villi and crypts [7]: more marked in the group treated with the vehicle

C=C1/C(=C\C=C2/CCC[C@]3(C)[C@@H]([C@H](C)CCCC(C)(C)O)CC[C@@H]23)C[C@@H](O)C[C@@H]1O [calcitriol]
Effect on the intestinal mucosal barrier towards PT-G [8]: protective action against TJs
